Measurements from Sander's compilation of Henry's law constants.
One block for each molecule: values may come before it.

Legend:
[1] = Henry solubility constant Hcp at 310 K (mol/(m3 Pa))
[2] = Henry solubility constant Hcp at 298.15 K (mol/(m3 Pa))
[3] = Henry solubility constant Hcp at 296 K (mol/(m3 Pa))
[4] = Henry solubility constant Hcp at 293 K (mol/(m3 Pa)); conditions: reference: Yurteri et al. (1987)
[5] = reference: Nicholson et al. (1984)
[6] = reference: Ruiz-Bevia and Fernandez-Torres (2010)
[7] = reference: Warner et al. (1980)
[8] = reference: Fendinger et al. (1989)
[9] = reference: Miller and Stuart (2000)
[10] = reference: Arp and Schmidt (2004)
[11] = reference: Johanson and Dynésius (1988)
[12] = reference: Fendinger and Glotfelty (1988)
[13] = reference: Lerman et al. (1983)
[14] = reference: Smith et al. (1981b)

Structure (SMILES): ClC(Br)Br [dibromochloromethane]
Henry solubility constant Hcp at 310 K ([1]; reference: Zhang et al. (2002)): 0.0046
Henry solubility constant Hcp ([2]; reference: Ervin et al. (1980)): 0.0085
Henry solubility constant Hcp [2, 5]: 0.0086
Henry solubility constant Hcp [2, 6]: 0.011
Henry solubility constant Hcp [2, 7]: 0.013

Structure (SMILES): Clc1ccc(C(c2ccc(Cl)cc2)C(Cl)(Cl)Cl)cc1 [1,1,1-trichloro-2,2-bis-(4-chlorophenyl)-ethane]
Henry solubility constant Hcp at 296 K [3, 8]: 0.77
Henry solubility constant Hcp [2, 8]: 1.2

Structure (SMILES): O=C=O [carbon dioxide]
Henry solubility constant Hcp at 310 K ([1]; reference: Power and Stegall (1970)): 0.00024
Henry solubility constant Hcp ([2]; reference: Bohr (1899)): 0.00034
Henry solubility constant Hcp ([2]; reference: Bunsen (1855a)): 0.00034
Henry solubility constant Hcp ([2]; reference: Geffcken (1904)): 0.00033
Henry solubility constant Hcp ([2]; reference: Kunerth (1922)): 0.00033
Henry solubility constant Hcp ([2]; reference: Morrison and Billett (1952)): 0.00033
Henry solubility constant Hcp ([2]; reference: Murray and Riley (1971)): 0.00033
Henry solubility constant Hcp ([2]; reference: Orcutt and Seevers (1937a)): 0.00033
Henry solubility constant Hcp ([2]; reference: Zheng et al. (1997)): 0.00034

Structure (SMILES): ClC1C(Cl)C(Cl)C(Cl)C(Cl)C1Cl (stereo unspecified) [γ-1,2,3,4,5,6-hexachlorocyclohexane]
Henry solubility constant Hcp at 296 K [3, 12]: 5
Henry solubility constant Hcp at 296 K [3, 8]: 4.9
Henry solubility constant Hcp ([2]; reference: Kucklick et al. (1991)): 2.8
Henry solubility constant Hcp ([2]; reference: Sahsuvar et al. (2003)): 4.3
Henry solubility constant Hcp ([2]; reference: Xie et al. (2004)): 6

Structure (SMILES): ClC(Cl)Br [bromodichloromethane]
Henry solubility constant Hcp at 310 K ([1]; reference: Zhang et al. (2002)): 0.0029
Henry solubility constant Hcp ([2]; reference: Ervin et al. (1980)): 0.0035
Henry solubility constant Hcp [2, 5]: 0.0047
Henry solubility constant Hcp [2, 6]: 0.0058
Henry solubility constant Hcp [2, 7]: 0.0047

Structure (SMILES): Cc1ccc(C)c(C)c1 [1,2,4-trimethylbenzene]
Henry solubility constant Hcp at 293 K [4]: 0.0021
Henry solubility constant Hcp at 310 K ([1]; reference: Järnberg and Johanson (1995)): 0.00062
Henry solubility constant Hcp ([2]; reference: Li et al. (2008)): 0.0017

Structure (SMILES): CCOP(=S)(OCC)Oc1cc(C)nc(C(C)C)n1 [diazinon]
Henry solubility constant Hcp at 296 K [3, 12]: 88
Henry solubility constant Hcp at 296 K [3, 8]: 84
Henry solubility constant Hcp ([2]; reference: Feigenbrugel et al. (2004a)): 15

Structure (SMILES): Cc1ccc(C)cc1 [1,4-dimethylbenzene]
Henry solubility constant Hcp at 310 K ([1]; reference: McIntosh and Heffron (2000)): 0.00067
Henry solubility constant Hcp ([2]; reference: Bissonette et al. (1990)): 0.0012
Henry solubility constant Hcp ([2]; reference: Bobadilla et al. (2003)): 0.002
Henry solubility constant Hcp ([2]; reference: Li et al. (2008)): 0.0014
Henry solubility constant Hcp ([2]; reference: Lin and Chou (2006)): 0.0016
Henry solubility constant Hcp ([2]; reference: Park et al. (1997)): 0.00098
Henry solubility constant Hcp ([2]; reference: Wasik and Tsang (1970)): 0.0023

Structure (SMILES): CCOCCOC(C)=O [2-ethoxyethyl ethanoate]
Henry solubility constant Hcp at 310 K [1, 11]: 1.5

Structure (SMILES): CCCCOCC [1-ethoxy-butane]
Henry solubility constant Hcp at 296 K [3, 9]: 0.0064

Structure (SMILES): BrC(Br)Br [tribromomethane]
Henry solubility constant Hcp at 310 K ([1]; reference: Zhang et al. (2002)): 0.0096
Henry solubility constant Hcp ([2]; reference: Khalfaoui and Newsham (1994a)): 0.0085
Henry solubility constant Hcp ([2]; reference: Munz and Roberts (1987)): 0.018
Henry solubility constant Hcp [2, 5]: 0.016
Henry solubility constant Hcp [2, 6]: 0.02
Henry solubility constant Hcp [2, 7]: 0.019

Structure (SMILES): ClC1=C(Cl)[C@]2(Cl)C3C(Cl)C(Cl)CC3[C@@]1(Cl)C2(Cl)Cl (stereo partly specified) [chlordane]
Henry solubility constant Hcp at 296 K [3, 8]: 0.18
Henry solubility constant Hcp [2, 8]: 0.12
Henry solubility constant Hcp [2, 7]: 0.21

Results, then the molecule that gave them:

Henry solubility constant Hcp at 296 K [3, 9]: 0.0043
Henry solubility constant Hcp [2, 10]: 0.0039
Henry solubility constant Hcp ([2]; reference: Hwang et al. (2010)): 0.015
Henry solubility constant Hcp ([2]; reference: Nielsen et al. (1994)): 0.0048
Structure (SMILES): CC(C)OC(C)C [diisopropyl ether]

Henry solubility constant Hcp at 310 K [1, 11]: 4.8
Structure (SMILES): COCC(C)O (stereo unspecified) [1-methoxy-2-propanol]

Henry solubility constant Hcp at 296 K [3, 9]: 0.0052
Henry solubility constant Hcp [2, 10]: 0.0086
Henry solubility constant Hcp ([2]; reference: Haimi et al. (2006)): 0.01
Henry solubility constant Hcp ([2]; reference: Hwang et al. (2010)): 0.053
Henry solubility constant Hcp ([2]; reference: Park et al. (1997)): 0.007
Structure (SMILES): CCC(C)(C)OC [2-methoxy-2-methylbutane]

Henry solubility constant Hcp at 310 K ([1]; reference: Edelist et al. (1964)): 0.00012
Structure (SMILES): FC(Br)C(F)(F)F (stereo unspecified) [1-bromo-1,2,2,2-tetrafluoroethane]

Henry solubility constant Hcp at 310 K [1, 13]: 0.00033
Henry solubility constant Hcp at 310 K ([1]; reference: Saidman et al. (1966)): 0.00034
Henry solubility constant Hcp at 310 K ([1]; reference: Stoelting and Longshore (1972)): 0.00032
Henry solubility constant Hcp [2, 14]: 0.00053
Structure (SMILES): FC(F)(F)C(Cl)Br (stereo unspecified) [1-bromo-1-chloro-2,2,2-trifluoroethane]

Henry solubility constant Hcp at 296 K ([3]; reference: Liu et al. (2015)): 0.068
Henry solubility constant Hcp ([2]; reference: Buttery et al. (1965)): 0.058
Henry solubility constant Hcp ([2]; reference: Ji and Evans (2007)): 0.071
Structure (SMILES): CCCCC=O [pentanal]

Henry solubility constant Hcp at 310 K [1, 11]: 14
Structure (SMILES): COCCO [2-methoxyethanol]

Henry solubility constant Hcp at 310 K [1, 13]: 0.00024
Henry solubility constant Hcp [2, 14]: 0.00048
Structure (SMILES): FC(F)OC(Cl)C(F)(F)F (stereo unspecified) [1-chloro-2,2,2-trifluoroethyl difluoromethyl ether]
